From patent publication US20220073536A1 (Rigel Pharmaceuticals, Inc., priority 2003, published 2022)
Counter-ions that a name gives are not always drawn. Like-named read-outs stand apart in the source and are kept apart here.

System: cultured human mast cells (CHMC)
Assay: CHMC low cell density IgE activation: tryptase assay
Format: cell-based
Conditions: low cell density CHMC, IgE activation, tryptase
Summary of the method: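 CHMC at 1000–1500 cells/well were preincubated 1 hr at 37° C., stimulated with anti-IgE for 30 minutes at 37° C., then pelleted. Supernatant tryptase was measured with a fluorogenic substrate after 30 min at room temperature, against un-stimulated control wells.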

[1] = 3 pt, read-out: LD Tryptase, CHMC, IgE, 3 pt
[2] = 8 pt, read-out: LD Tryptase, CHMC, IgE, 8 pt
[3] = Homo sapiens, Mast cell, 8 pt, read-out: LD Tryptase, CHMC, IgE, 8 pt
[4] = Homo sapiens, Mast cell, 3 pt, read-out: LD Tryptase, CHMC, IgE, 3 pt

Structure (SMILES) | IC50 [1] | IC50 [3] | IC50 [4] | also measured
COc1cc(Nc2ncc(F)c(Nc3ccc4c(n3)N(C)C(=O)C(C)(C)O4)n2)cc(OC)c1OC [Compound 689, 5-Fluoro-N4-(3-oxo-2,2,4-trimethyl-5-pyrid[1,4]oxazin-6-yl)-N2-(3,4,5-trimethoxyphenyl)-2,4-pyrimidinediamine] | – | – | – | IC50 [2]: < 10 µM
COC(=O)CN1C(=O)C(C)(C)Oc2ccc(Nc3nc(Nc4cc(OC)c(OC)c(OC)c4)ncc3F)nc21 [Compound 690, N4-(2,2-Dimethyl-4-carbomethoxymethyl-3-oxo-5-pyrid[1,4]oxazin-6-yl)-5-fluoro-N2-(3,4,5-trimethoxyphenyl)-2,4-pyrimidinediamine] | – | – | – | IC50 [2]: < 10 µM
CCCn1ncc2cc(Nc3ncc(F)c(Nc4ccc(OC)c(Cl)c4)n3)ccc21 [Compound 702, N4-(3-Chloro-4-methoxyphenyl)-5-fluoro-N2-(1-n-propylindazol-5-yl)-2,4-pyrimidinediamine] | – | < 10 µM | – | –
CCCn1ncc2cc(Nc3ncc(F)c(Nc4ccc(Cl)c(Cl)c4)n3)ccc21 [Compound 703, N4-(3,4-Dichlorophenyl)-5-fluoro-N2-(1-n-propylindazol-5-yl)-2,4-pyrimidinediamine] | – | – | < 10 µM | –
CCCn1ncc2cc(Nc3ncc(F)c(Nc4ccc(F)c(OC)c4)n3)ccc21 [Compound 705, 5-Fluoro-N4-(4-fluoro-3-methoxyphenyl)-N2-(1-n-propylindazol-5-yl)-2,4-pyrimidinediamine] | – | < 10 µM | – | –
CCCn1ncc2ccc(Nc3ncc(F)c(Nc4ccc(Cl)c(Cl)c4)n3)cc21 [Compound 707, N4-(3,4-Dichlorophenyl)-5-fluoro-N2-(1-n-propylindazol-6-yl)-2,4-pyrimidinediamine] | – | < 10 µM | < 10 µM | –
CCCn1ncc2ccc(Nc3ncc(F)c(Nc4ccc(F)c(OC)c4)n3)cc21 [Compound 709, 5-Fluoro-N4-(4-fluoro-3-methoxyphenyl)-N2-(1-n-propylindazol-6-yl)-2,4-pyrimidinediamine] | – | < 10 µM | – | –
CCCCn1ncc2cc(Nc3ncc(F)c(Nc4ccc(OC)c(Cl)c4)n3)ccc21 [Compound 710, N2-(1-n-Butylindazol-5-yl)-N4-(3-chloro-4-methoxyphenyl)-5-fluoro-2,4-pyrimidinediamine] | – | – | < 10 µM | –
CCCCn1ncc2cc(Nc3ncc(F)c(Nc4ccc(Cl)c(Cl)c4)n3)ccc21 [Compound 711, N2-(1-n-Butylindazol-5-yl)-N4-(3,4-dichlorophenyl)-5-fluoro-2,4-pyrimidinediamine] | – | – | < 10 µM | –
CCCCn1ncc2cc(Nc3ncc(F)c(Nc4ccc(F)c(OC)c4)n3)ccc21 [Compound 713, N2-(1-n-Butylindazol-5-yl)-5-fluoro-N4-(4-fluoro-3-methoxyphenyl)-2,4-pyrimidinediamine] | – | < 10 µM | < 10 µM | –
CCCCn1ncc2ccc(Nc3ncc(F)c(Nc4ccc(OC)c(Cl)c4)n3)cc21 [Compound 714, N2-(1-n-Butylindazol-6-yl)-N4-(3-chloro-4-methoxyphenyl)-5-fluoro-2,4-pyrimidinediamine] | – | < 10 µM | – | –
CCCCn1ncc2ccc(Nc3ncc(F)c(Nc4ccc(Cl)c(Cl)c4)n3)cc21 [Compound 715, N2-(1-n-Butylindazol-6-yl)-N4-(3,4-dichlorophenyl)-5-fluoro-2,4-pyrimidinediamine] | – | – | < 10 µM | –
CCCCn1ncc2ccc(Nc3ncc(F)c(Nc4ccc(F)c(OC)c4)n3)cc21 [Compound 717, N2-(1-n-Butylindazol-6-yl)-5-fluoro-N4-(4-fluoro-3-methoxyphenyl)-2,4-pyrimidinediamine] | – | – | < 10 µM | –
COc1ccc(Nc2nc(Nc3ccc4c(cnn4CC4CCCCC4)c3)ncc2F)cc1Cl [Compound 718, N4-(3-Chloro-4-methoxyphenyl)-N2-[1-(cyclohexylmethyl)indazol-5-yl]-5-fluoro-2,4-pyrimidinediamine] | – | – | < 10 µM | –
Fc1cnc(Nc2ccc3c(cnn3CC3CCCCC3)c2)nc1Nc1ccc(Cl)c(Cl)c1 [Compound 719, N2-[1-(Cyclohexylmethyl)indazol-5-yl]-N4-(3,4-dichlorophenyl)-5-fluoro-2,4-pyrimidinediamine] | – | – | < 10 µM | –
CC1(C)Oc2ccc(Nc3nc(Nc4ccc5c(cnn5CC5CCCCC5)c4)ncc3F)cc2NC1=O [Compound 720, N2-[1-(Cyclohexylmethyl)indazol-5-yl]-N4-(2,2-dimethyl-3-oxo-4H-benz[1,4]oxazin-6-yl)-5-fluoro-2,4-pyrimidinediamine] | – | < 10 µM | – | –
COc1cc(Nc2nc(Nc3ccc4c(cnn4CC4CCCCC4)c3)ncc2F)ccc1F [Compound 721, N2-[1-(Cyclohexylmethyl)indazol-5-yl)-5-fluoro-N4-(4-fluoro-3-methoxyphenyl)-2,4-pyrimidinediamine] | – | – | < 10 µM | –

The next lines start with results.

IC50 [1] | IC50 [3] | IC50 [4] | Structure (SMILES) | also measured
< 10 µM | – | – | COc1cc(Nc2ncc(F)c(Nc3ccc4c(n3)NC(=O)C(C)(C)O4)n2)cc(OC)c1OC.O=S(=O)(O)c1ccc(O)cc1 [Compound 676, N4-(2,2-Dimethyl-3-oxo-4H-5-pyrid[1,4]oxazin-6-yl)-5-fluoro-N2-(3,4,5-trimethoxyphenyl)-2,4-pyrimidinediamine 4-Hydroxybenzenesulfonic Acid Salt] | IC50 [2]: < 10 µM
< 10 µM | – | – | COc1cc(Nc2ncc(F)c(Nc3ccc4c(n3)NC(=O)C(C)(C)O4)n2)cc(OC)c1OC.O=S(=O)(O)c1cccnc1 [Compound 678, N4-(2,2-Dimethyl-3-oxo-4H-5-pyrid[1,4]oxazin-6-yl)-5-fluoro-N2-(3,4,5-trimethoxyphenyl)-2,4-pyrimidinediamine 0.5 Pyridine-3-sulfonic Acid Salt] | IC50 [2]: < 10 µM
< 10 µM | – | – | CCc1ccc(S(=O)(=O)O)cc1.COc1cc(Nc2ncc(F)c(Nc3ccc4c(n3)NC(=O)C(C)(C)O4)n2)cc(OC)c1OC [Compound 679, N4-(2,2-Dimethyl-3-oxo-4H-5-pyrid[1,4]oxazin-6-yl)-5-fluoro-N2-(3,4,5-trimethoxyphenyl)-2,4-pyrimidinediamine p-Ethylbenzenesulfonic Acid Salt] | IC50 [2]: < 10 µM
< 10 µM | – | – | CNC(=O)Cn1ccc2cc(Nc3ncc(F)c(Nc4ccc5c(n4)NC(=O)C(C)(C)O5)n3)ccc21 [Compound 683, N4-(2,2-Dimethyl-3-oxo-4H-5-pyrid[1,4]oxazin-6-yl)-5-fluoro-N2-[1-(N-methylamino)carbonylmethyleneindol-5-yl]-2,4-pyrimidinediamine] | IC50 [2]: < 10 µM
< 10 µM | – | – | Cc1cc(Nc2ncc(F)c(Nc3ccc4c(n3)NC(=O)C(C)(C)O4)n2)cc(C)c1Cl [Compound 684, N2-(4-Chloro-3,5-dimethylphenyl)-N4-(2,2-dimethyl-3-oxo-4H-5-pyrid[1,4]oxazin-6-yl)-5-fluoro-2,4-pyrimidinediamine p-Toluenesulfonic Acid Salt] | –
< 10 µM | – | – | CC1(C)Oc2ccc(Nc3nc(Nc4cc(Cl)c(O)c(Cl)c4)ncc3F)nc2NC1=O [Compound 686, N4-(2,2-Dimethyl-3-oxo-4H-5-pyrid[1,4]oxazin-6-yl)-N2-(3,5-dichloro-4-hydroxyphenyl)-5-fluoro-2,4-pyrimidinediamine] | IC50 [2]: < 10 µM
< 10 µM | – | – | CN1C(=O)C(C)(C)Oc2ccc(Nc3ncc(F)c(Nc4ccc5c(n4)N(C)C(=O)C(C)(C)O5)n3)nc21 [Compound 687, N2,N4-Bis (3-oxo-2,2,4-trimethyl-5-pyrid[1,4]oxazin-6-yl)-5-fluoro-2,4-pyrimidinediamine] | –
> 10 µM | – | – | COC(=O)CN1C(=O)C(C)(C)Oc2ccc(Nc3ccnc(Nc4ccc5c(n4)N(CC(=O)OC)C(=O)C(C)(C)O5)n3)nc21 [Compound 688, N2,N4-Bis (2,2-dimethyl-4-carbomethoxymethyl-3-oxo-5-pyrid[1,4]oxazin-6-yl)-2,4-pyrimidinediamine] | –
< 10 µM | – | – | COC(=O)CN1C(=O)C(C)(C)Oc2ccc(N(CC(=O)OC)c3nc(Nc4cc(OC)c(OC)c(OC)c4)ncc3F)nc21 [Compound 691, N4-(2,2-Dimethyl-4-carbomethoxymethyl-3-oxo-5-pyrid[1,4]oxazin-6-yl)-5-fluoro-N4-carbomethoxymethyl-N2-(3,4,5-trimethoxyphenyl)-2,4-pyrimidinediamine] | –
< 10 µM | – | – | COc1cc(Nc2ncc(F)c(Nc3ccc4c(n3)NC(=O)C(C)(C)O4)n2)cc(OC)c1OCCN1CCOCC1 [Compound 692, N2-[3,5-Dimethoxy-4-(2-(N-morpholino)ethyloxo)phenyl]-N4-(2,2-dimethyl-3-oxo-4H-5-pyrid[1,4]oxazin-6-yl)-5-fluoro-2,4-pyrimidinediamine] | IC50 [2]: < 10 µM
< 10 µM | – | – | CC1(C)Oc2ccc(Nc3ncc(F)c(Nc4ccc5c(n4)NC(=O)C(C)(C)O5)n3)nc2NC1=O [Compound 693, N2, N4-Bis (2,2-dimethyl-3-oxo-4H-5-pyrid[1,4]oxazin-6-yl)-5-fluoro-2,4-pyrimidinediamine] | –
– | < 10 µM | – | CCCn1ncc2cc(Nc3ncc(F)c(Nc4ccc5c(c4)NC(=O)C(C)(C)O5)n3)ccc21 [Compound 704, N4-(2,2-Dimethyl-3-oxo-4H-benz[1,4]oxazin-6-yl)-5-fluoro-N2-(1-n-propylindazol-5-yl)-2,4-pyrimidinediamine] | –
– | < 10 µM | – | CCCn1ncc2ccc(Nc3ncc(F)c(Nc4ccc5c(c4)NC(=O)C(C)(C)O5)n3)cc21 [Compound 708, N4-(2,2-Dimethyl-3-oxo-4H-benz[1,4]oxazin-6-yl)-5-fluoro-N2-(1-n-propylindazol-6-yl)-2,4-pyrimidinediamine] | –
– | < 10 µM | – | CCCCn1ncc2cc(Nc3ncc(F)c(Nc4ccc5c(c4)NC(=O)C(C)(C)O5)n3)ccc21 [Compound 712, N2-(1-n-Butylindazol-5-yl)-N4-(2,2-dimethyl-3-oxo-4H-benz[1,4]oxazin-6-yl)-5-fluoro-2,4-pyrimidinediamine] | –
– | < 10 µM | – | CCCCn1ncc2ccc(Nc3ncc(F)c(Nc4ccc5c(c4)NC(=O)C(C)(C)O5)n3)cc21 [Compound 716, N2-(1-n-Butylindazol-6-yl)-N4-(2,2-dimethyl-3-oxo-4H-benz[1,4]oxazin-6-yl)-5-fluoro-2,4-pyrimidinediamine] | –
